Experimental data reported in PubChem BioAssay (NCI).
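These data come from cells grown in 96-well plates and exposed to compound for 48 hours at five concentrations. TGI is the concentration that stops growth completely.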

Key:
Test in all cases: inhibition of tumour cell growth, NCI panel, 48 h
SF-295 CNS = system: SF-295 CNS
SNB-19 CNS = system: SNB-19 CNS
LXFL 529 NSCLC = system: LXFL 529 NSCLC
KM20L2 colon = system: KM20L2 colon
DMS 114 small cell lung = system: DMS 114 small cell lung
SN12C renal = system: SN12C renal
LOX IMVI melanoma = system: LOX IMVI melanoma
NCI-H226 lung = system: NCI-H226 lung
NCI-H522 lung = system: NCI-H522 lung
A498 renal = system: A498 renal
U251 CNS = system: U251 CNS
SNB-78 CNS = system: SNB-78 CNS
TK-10 renal = system: TK-10 renal
SK-OV-3 ovarian = system: SK-OV-3 ovarian
NCI-H460 lung = system: NCI-H460 lung
HT29 colon = system: HT29 colon
DMS 273 small cell lung = system: DMS 273 small cell lung
MOLT-4 leukemia = system: MOLT-4 leukemia
K-562 leukemia = system: K-562 leukemia
UACC-257 melanoma = system: UACC-257 melanoma
KM12 colon = system: KM12 colon
RXF 393 renal = system: RXF 393 renal
MALME-3M melanoma = system: MALME-3M melanoma
ACHN renal = system: ACHN renal
HOP-18 NSCLC = system: HOP-18 NSCLC
RPMI-8226 leukemia = system: RPMI-8226 leukemia
OVCAR-5 ovarian = system: OVCAR-5 ovarian
COLO 205 colon = system: COLO 205 colon
NCI-H23 lung = system: NCI-H23 lung
SR leukemia = system: SR leukemia
SF-539 CNS = system: SF-539 CNS
OVCAR-3 ovarian = system: OVCAR-3 ovarian
UO-31 renal = system: UO-31 renal
786-0 renal = system: 786-0 renal
HOP-92 NSCLC = system: HOP-92 NSCLC
SW-620 colon = system: SW-620 colon
CCRF-CEM leukemia = system: CCRF-CEM leukemia
CAKI-1 renal = system: CAKI-1 renal
HOP-62 NSCLC = system: HOP-62 NSCLC
OVCAR-8 ovarian = system: OVCAR-8 ovarian
SK-MEL-2 melanoma = system: SK-MEL-2 melanoma
SK-MEL-5 melanoma = system: SK-MEL-5 melanoma
SNB-75 CNS = system: SNB-75 CNS
HCC-2998 colon = system: HCC-2998 colon
M19-MEL melanoma = system: M19-MEL melanoma
IGROV1 ovarian = system: IGROV1 ovarian
M14 melanoma = system: M14 melanoma
EKVX NSCLC = system: EKVX NSCLC
HCT-15 colon = system: HCT-15 colon
XF 498 CNS = system: XF 498 CNS
SF-268 CNS = system: SF-268 CNS
UACC-62 melanoma = system: UACC-62 melanoma
HCT-116 colon = system: HCT-116 colon
HL-60(TB) leukemia = system: HL-60(TB) leukemia
RXF-631 renal = system: RXF-631 renal
A549 NSCLC = system: A549 NSCLC
SK-MEL-28 melanoma = system: SK-MEL-28 melanoma

Measured: TGI

CCC/C(=N/NC(=O)C(N)=O)C(CC)C(=O)CCC(=O)N(Cc1ccccc1)Cc1ccccc1 (configuration not stated)
> 100 µM: SF-295 CNS | SNB-19 CNS | LXFL 529 NSCLC | KM20L2 colon | DMS 114 small cell lung | SN12C renal | LOX IMVI melanoma | NCI-H226 lung | NCI-H522 lung | A498 renal | U251 CNS | SNB-78 CNS | TK-10 renal | SK-OV-3 ovarian | NCI-H460 lung | HT29 colon | DMS 273 small cell lung | MOLT-4 leukemia | K-562 leukemia | UACC-257 melanoma | KM12 colon | RXF 393 renal | MALME-3M melanoma | ACHN renal | HOP-18 NSCLC | RPMI-8226 leukemia | OVCAR-5 ovarian | COLO 205 colon | NCI-H23 lung | SR leukemia | SF-539 CNS | OVCAR-3 ovarian | UO-31 renal | 786-0 renal | HOP-92 NSCLC | SW-620 colon | CCRF-CEM leukemia | CAKI-1 renal | HOP-62 NSCLC | OVCAR-8 ovarian | SK-MEL-2 melanoma | SK-MEL-5 melanoma | SNB-75 CNS | HCC-2998 colon | M19-MEL melanoma | IGROV1 ovarian | M14 melanoma | EKVX NSCLC | HCT-15 colon | XF 498 CNS | SF-268 CNS | UACC-62 melanoma | HCT-116 colon | HL-60(TB) leukemia | RXF-631 renal | A549 NSCLC | SK-MEL-28 melanoma
